# Test results reported in patent US11091429B2, “Organic compounds” (Givaudan SA, priority 2012, dated 2021).
# “Also recorded” adds a separate entry of the source.
# Legend:
# [1] = Tasting in Maggi beef bouillon; conditions: Maggi beef bouillon 1 tablet in 500 ml of hot water
# Description: (§1) Samples were prepared and evaluated by expert tasters. Tasters were asked to describe the samples focusing on authentic taste, mouthfeel, fullness, salty-ness, salivation, umami, sweetness, juiciness, richness, long lastingness and fattiness.
# Comparison in Beef Bouillon
# Base is Maggi beef bouillon 1 tablet in 500 ml of hot water
# (§2) Samples were evaluated by expert tasters. Tasters were asked to describe the samples focusing on authentic taste, mouthfeel, fullness, salty-ness, salivation, umami, sweetness, juiciness, richness, long lastingness and fattiness.
# (§3) Samples were evaluated by expert tasters. Tasters were asked to describe the samples focusing on authentic taste, mouthfeel, fullness, salivation, salty-ness, umami, sweetness, juiciness, richness, long lastingness and fattiness.
# (§4) Samples were evaluated by expert tasters. Tasters were asked to describe the samples focusing on authentic taste, mouthfeel, fullness, salty-ness, salivation, umami, sweetness, juiciness, richness, long lastingness and fattiness
# (§5) Samples were evaluated by expert tasters. Tasters were asked to describe the samples focusing on authentic taste, mouth feel, fullness, salivation, salty-ness, umami, sweetness, juiciness, richness, long lastingness and fattiness
# [2] = Tasting in mango juice drink, 1% clear mango juice; conditions: 8% sucrose, 0.1% citric acid, mango flavour 0.05%
# Description: Comparison in a Mango Juice Drink
# Base is 8% sucrose, 0.1% citric acid, 1% clear mango juice, and a proprietary mango flavour at 0.05%.
# as §2
# Base is water, 8% sucrose, 0.1% citric acid, 1% clear mango juice, proprietary mango flavour @ 0.05%
# as §3
# Base is water, 8% sucrose, 0.1% citric acid, 1% clear mango juice, proprietary mango flavour @0.05%
# as §4
# Base is 8% sucrose, 0.1% citric acid, 1% clear mango juice, proprietary mango flavour @ 0.05%
# as §5
# Base is water, 8% sucrose, 0.1% citric acid, 1% clear mango juice, proprietary mango flavour @ 0.05%.
# Test in a Mango Juice Drink
# Test in lemon beverage = conditions: 1 ppm; water, 7% sucrose, 0.15% citric acid, lemon flavor
# Description: as §2
# Basis water, 7% sucrose, 0.15% citric acid, proprietary lemon flavor
# as §4
# Test in orange beverage = conditions: 1 ppm; water, 7% sugar (8% sucrose elsewhere in the source), 0.1% citric acid, orange flavour 0.06%
# Description: as §2
# Base is water, 7% sugar, 0.1% citric acid, proprietary orange flavour @ 0.06%.
# as §4
# Base is water, 7% sugar, 0.1% citric acid, proprietary orange flavour @ 0.06%
# as §5
# Samples were evaluated by expert tasters. Tasters were asked to describe the samples focusing on authentic taste, mouthfeel, fullness, salivation, sweetness, juiciness, richness, long lastingness and fattiness
# Comparison in an Orange Drink
# Base: water, 8% sucrose, 0.1% citric acid, proprietary orange flavour @ 0.06%.
# [3] = Tasting in Activa strawberry yoghurt; conditions: 2 ppm, 13.5% sugar, 3.2% fat
# Description: Activa Strawberry Yoghurt
# In a Full fat, Activa strawberry flavoured yoghurt containing 13.5% sugar, 3.2% fat C18:2-gaba and C18:0-leu at 2 ppm
# [4] = Tasting in strawberry drink; conditions: 0.5 ppm; 7% sucrose, 0.1% citric acid, strawberry flavour 0.015%
# Description: as §1
# Comparison in a Strawberry Drink
# Base is 7% sucrose, 0.1% citric acid, and a proprietary strawberry flavour @ 0.015%
# as §2
# Base is water, 7% sucrose, 0.1% citric acid, proprietary strawberry flavour @ 0.015%
# as §3
# Test in a Strawberry Drink
# Base is 7% sucrose, 0.1% citric acid, proprietary strawberry flavour @ 0.015%
# [5] = Tasting in strawberry flavoured sugar sweetened yoghurt; conditions: 1.5% fat yoghurt, 8% sucrose, strawberry flavour 0.015%
# Description: Strawberry Flavoured Sugar Sweetened Yoghurt
# In a 1.5% fat yoghurt base, sweetened with 8% sucrose by weight, flavoured with a proprietary strawberry flavour @ 0.015% several different N-acyl aminoacids were added.
# as §1
# Test in a Strawberry Yoghurt
# Base: Yoghurt 1.5% fat yoghurt, 8% sucrose, proprietary strawberry flavour @ 0.015%
# as §3
# [6] = Test in pear flavoured drink; conditions: water, 0.1% citric acid, pear flavour 0.025%
# Description: as §1
# Test in Pear Flavoured Drink:
# Base: water, 7% sugar, 0.1% citric acid, proprietary pear flavour at 0.025%
# as §2
# Comparison in a Pear Drink
# Base is water, 8% sugar, 0.1% citric acid, proprietary pear flavour at 0.025%
# [7] = Test in peach flavoured drink; conditions: 1 ppm; water, 8% sugar, 0.1% citric acid, peach flavour 0.05%
# Description: as §1
# Test in Peach Flavoured Drink:
# Base is water, 8% sugar, 0.1% citric acid, and proprietary peach flavour at 0.05%
# as §2
# Comparison in a Peach Drink
# Base is water, 8% sugar, 0.1% citric acid, proprietary peach flavour at 0.05%
# as §3
# [8] = Tasting in vanilla milk 0.15% fat; conditions: 4% sucrose, Vaniline 10 ppm + vanilla extract 0.03%
# Description: as §1
# Base: Milk 0.15% fat, sweetened with 4% sucrose by weight, flavoured with proprietary
# Vaniline flavour @ 10 ppm+Vanilla ext. @ 0.03%
# as §2
# Comparison in a Vanilla Milk Drink
# Vaniline @ 10 ppm+Vanilla extract @ 0.03%
# Base: Milk 0.15% fat, sweetened with 4% sucrose by weight, flavoured with proprietary Vaniline @ 10 ppm+Vanilla extract @ 0.03%
# [9] = Test in chocolate flavoured drink; conditions: water, 4% sucrose, chocolate flavour 0.03%
# Description: as §1
# Test in Chocolate Flavoured Drink:
# Base: Water, 4% sucrose, proprietary chocolate flavor at 0.03%
# as §2
# Test in Chocolate Flavoured Drink Flavoured
# Base: Water, 4% sucrose, proprietary chocolate flavour @ 0.03%
# [10] = Tasting in vanilla flavoured milk 3.0% fat; conditions: 4% sugar, vanillin 10 ppm, vanilla extract 0.03%
# Description: Vanilla Flavoured Milk 3.0% Fat
# In a 3% fat milk drink, sweetened with 4% sucrose by weight, flavoured with Vaniline @ 10 ppm and a Vanilla extract @ 0.03% C18:2-gaba, C18:1-ACOA and C18:1-glu were added at 0.5 or 2 ppm.
# Samples were evaluated by expert tasters. Tasters were asked to describe the samples focusing on authentic taste, mouthfeel, fullness, salivation, sweetness, juiciness, richness, long lastingness and fattiness.
# Base: Milk 3% fat, 4% sugar, vanillin 10 ppm, vanilla extract 0.03%
# [11] = Tasting in beef bouillon base; conditions: 0.5% fat
# Description: (§6) The following formulations were prepared and tasted by trained panelists.
# Beef Bouillon base 1.0% salt, 0.5% fat
# [12] = Tasting on fried potato snack product; conditions: 35% fat, cheese seasoning
# Description: as §6
# A snack product consisting of a fried potato base, containing 35% fat and flavored with cheese seasoning containing salt, MSG, dairy, organic acids, sugars, and a flavour formulation. The following compounds were added to the snack product at the indicated levels and the tasting results are reported: […]
# [13] = Tasting in mango still beverage, 4% clear mango juice; conditions: 0.5 ppm; 4% clear mango juice (30% reduced juice)
# Description: (§7) Mango Flavoured Still Beverage Containing Different Levels of Juice,
# (§8) In a Mango flavoured still beverage, sweetened with 8% sucrose and containing 0.1% citric acid and 1%, 4% and 6% clear mango juice flavoured with a proprietary Mango flavour @ 0.05%, C18:2-gaba and C18:2-Pro were added, as such (separate) and in combination.
# (§9) All samples were evaluated by expert tasters. Tasters were asked to describe the samples focusing on authentic taste, juicy mouthfeel, enhancement, richness, juiciness, long lastingness, salivation, sweetness.
# In a Mango flavoured still beverage, sweetened with 8% sucrose & containing 0.1% citric acid and 4% clear mango juice flavoured with Mango flavour @ 0.05%, C18:2-gaba and C18:2-Pro were added, as such (separate) and in combination.
# Base is water, 8% sucrose, 0.1% citric acid, 4% clear mango juice (30% reduced juice), flavoured with Mango flavor, dosed at 0.05%
# Test on Tang = conditions: 1 ppm, orange flavoured Tang
# Description: In an orange flavoured Tang powdered soft drink (market product) sweetened with sucrose plus high intensity sweetener and containing citric acid, C18:2-gaba and C18:2-pro were tested.
# All samples were evaluated by expert tasters. Tasters were asked to describe the samples focusing on authentic taste, mouthfeel & body, enhancement, richness, juiciness, long lastingness, salivation, sweetness, masking off notes of high intensity sweetener
# Base is Orange Flavoured Tang
# [14] = Tasting in mango still beverage, 6% clear mango juice; conditions: 0.5 ppm; 6% clear mango juice (full juice)
# Description: as §7, §8, §9
# In a Mango-flavoured still beverage, sweetened with 8% sucrose & containing 0.1% citric acid and 6% clear mango juice flavoured with Mango flavour@0.05%, C18:2-gaba and C18:2-Pro were added, as such (separate) and in combination.
# Base is water, 8% sucrose, 0.1% citric acid, 6% clear mango juice (full juice), flavoured with Mango flavor, dosed at 0.05%.
# Tasting in soy sauce = conditions: 0.5 ppm in Kikkoman soy sauce low salt
# Description: as §6
# Salt level pure product between 5-40%
# Salt level in application 0.3-1.0%
# as §1
# Test on Kikkoman Soy Sauce Low Salt
# Base is Kikkoman soy sauce
# Samples were prepared and evaluated by expert tasters. Tasters were asked to describe the samples focusing on authentic taste, mouthfeel, fullness, salivation, salty-ness, umami, sweetness, juiciness, richness, long lastingness and fattiness.
# [15] = 1 ppm, 7% sugar (8% elsewhere in the source)
compound,measurement,setting,value
CCCCCC/C=C\CCCC(=O)NC(CCSC)C(=O)O (centres unmarked) [C12:1-met],tasting result,[1]; 1 ppm,more salty
same,tasting result,[2]; 1 ppm,"ripe full, more juicy, slightly metallic"
same,tasting result,Test in lemon beverage,"fresh, slightly more citral"
same,tasting result,Test in orange beverage,"nice orange, fresh"
CCCCCCCCCCCCCCCCCC(=O)NC(CC(C)C)C(=O)O (centres unmarked) [C18:0-leu],tasting result,[3],"very juicy strawberry full, 3D, stronger strawberry, long lasting and creamy"
same,tasting result,[2]; 2 ppm,"fruity strawberry like, ripe, long lasting"
same,tasting result,[4],"fruity authentic strawberry, stronger strawberry, ripe, long lasting, juicy"
same,tasting result,[5]; 2 ppm,"fruity authentic strawberry, stronger strawberry, ripe, long lasting, juicy, creamy yoghurt"
same,tasting result,"[5]; 2 ppm, listed as C18:0 leu","Very juicy full, 3D, stronger nicer strawberry, long lasting nice creamy aftertaste"
same,tasting result,[5]; 5 ppm,"Very juicy full, 3D, stronger nicer strawberry, salivating long lasting"
CCCCCCCC/C=C\CCCCCCCC(=O)NC(CCC(=O)O)C(=O)O (centres unmarked) [C18:1-glu],tasting result,"[6]; 0.5 ppm, 7% sugar","nice fatty, juicy, long lasting"
same,tasting result,[6]; [15],"ripe, authentic pear, juicy, fatty skin like"
same,tasting result,[2]; 1 ppm,"heavy, jammy, enhanced mango, more sulfury, sl umami"
same,tasting result,[7],"ripe, much more juicy, long lasting, more fatty and sweet"
same,tasting result,[8]; 1 ppm,"full, beany, more sweet; also recorded: sweet vanillic"
same,tasting result,[4],"nice mouthfeel, more natural strawberry, full juicy"
same,tasting result,[9]; 0.5 ppm,"full cocoa, nice sweet"
same,tasting result,[10]; 2 ppm,"full, fatty, vanilla bean enhanced, whipped cream like"
CCCCCCCC/C=C\CCCCCCCC(=O)NC(CCSC)C(=O)O (centres unmarked) [C18:1-met],tasting result,[11]; 0.5 PPM in beef bouillon base 1.0% salt,Very salty and rich
same,tasting result,[11]; 1.0 PPM in beef bouillon base 1.0% salt,"Full bodied, long lasting, more mouthfeel"
same,tasting result,[1]; 1 ppm,"very strong salty impact and aftertaste; also recorded: very strong salty impact and aftertaste, more fatty, mouthfeel, lingering full bodied"
same,tasting result,[1]; 25 ppb,"more peppery, more salty"
same,tasting result,[1]; 50 ppb,"more salty, more bouillon taste"
same,tasting result,[2]; 1 ppm,"sweeter, juicy, salivating"
same,tasting result,[12]; 0.25 ppm on fried potato snack,"Salty, aged cheese, succulent"
same,tasting result,[12]; 0.5 ppm on fried potato snack,"Increased cheese, creamy, salty and succulent"
same,tasting result,Test in lemon beverage,"fresh, less floral, very juicy, very authentic"
same,tasting result,Test in orange beverage,"very juicy fresh, authentic, juicy"
"CCCCC/C=C\C/C=C\CCCCCCCC(=O)N1CCC[C@H]1C(=O)O [C18:2-Pro, N-linoleoyl-Pro]",tasting result,[13],"more sweet, sugar-like, very juicy and long lasting sweet, salivating"
same,tasting result,Test on Tang,"very fresh, enhances sweet juicy orange notes, characteristic of authentic fresh orange fruit. Additionally, the off-notes of the high intensity sweetener were suppressed"
same,tasting result,[2]; 0.5 ppm,"more sweet, sugar-like, very juicy and long lasting sweet, salivating"
same,tasting result,Test in lemon beverage,"very juicy, more citral like, very authentic"
same,tasting result,Test in orange beverage,"very juicy, authentic orange"
same,tasting result,[14],"more sweet, sugar-like, very juicy and long lasting sweet, salivating, syrupy"
"CCCCC/C=C\C/C=C\CCCCCCCC(=O)NC(CC(=O)O)C(=O)O (centres unmarked) [C18:2-asp, N-linoleoyl-Asp]",tasting result,[6]; [15],"very juicy, authentic, texture like pear 3D"
same,tasting result,[2]; 1 ppm,"fatty, authentic fruit like, slight raspberry and pear note"
same,tasting result,[7],"fatty skin like, slight apple note"
same,tasting result,[8]; 2 ppm,sweet full very natural vanilla
same,tasting result,[9]; 2 ppm,"cardboard, sweet diy"
N-oleoyl 1-amino-cyclopropyl carboxylic acid [C18:1-ACCA],tasting result,Tasting in soy sauce,"Strong upfront saltiness lingering, very strong saltiness"
same,tasting result,[10]; 0.5 ppm,"sweet, sugar-like, vanillic"
